Source: ChEMBL document CHEMBL1201862, “PubChem BioAssay data set” (2004)
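Briefly, cells in 96-well plates were exposed to five compound concentrations for 48 h, and endpoints were estimated by linear interpolation. The concentration for 50% growth inhibition is given as GI50.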 Active and inactive are the calls of the source. No stated cut-off is given here; in the data, active = GI50 up to about 1.1 µM and inactive = higher.

Key:
Assay in all cases: NCI-60 cell line screen, 48 h
786-0 = system: 786-0
A498 = system: A498
A549 = system: A549
ACHN = system: ACHN
BT-549 = system: BT-549
CAKI-1 = system: CAKI-1
COLO 205 = system: COLO 205
DU-145 = system: DU-145
EKVX = system: EKVX
HCC 2998 = system: HCC 2998
HCT-116 = system: HCT-116
HCT-15 = system: HCT-15
HOP-62 = system: HOP-62
HOP-92 = system: HOP-92
HT-29 = system: HT-29
Hs-578T = system: Hs-578T
IGROV-1 = system: IGROV-1
K562 = system: K562
KM12 = system: KM12
LOX IMVI = system: LOX IMVI
M14 = system: M14
MCF7 = system: MCF7
MDA-MB-231 = system: MDA-MB-231
MDA-MB-435 = system: MDA-MB-435
MDA-N = system: MDA-N
MOLT-4 = system: MOLT-4
Malme-3M = system: Malme-3M
NCI-H23 = system: NCI-H23
NCI-H460 = system: NCI-H460
NCI-H522 = system: NCI-H522
NCI/ADR-RES = system: NCI/ADR-RES
OVCAR-3 = system: OVCAR-3
OVCAR-4 = system: OVCAR-4
OVCAR-5 = system: OVCAR-5
OVCAR-8 = system: OVCAR-8
PC-3 = system: PC-3
RPMI-8226 = system: RPMI-8226
RXF 393 = system: RXF 393
SF-268 = system: SF-268
SF-295 = system: SF-295
SF-539 = system: SF-539
SK-MEL-28 = system: SK-MEL-28
SK-MEL-2 = system: SK-MEL-2
SK-MEL-5 = system: SK-MEL-5
SK-OV-3 = system: SK-OV-3
SN12C = system: SN12C
SNB-19 = system: SNB-19
SNB-75 = system: SNB-75
SR = system: SR
SW-620 = system: SW-620
T47D = system: T47D
TK-10 = system: TK-10
U-251 = system: U-251
UACC-257 = system: UACC-257
UACC-62 = system: UACC-62
UO-31 = system: UO-31
CCRF-CEM = system: CCRF-CEM
HL-60 = system: HL-60
NCI-H226 = system: NCI-H226

Compound: Cc1[nH]n(-c2ccc(S(=O)(=O)O)cc2)c(=O)c1/N=N/c1ccccc1
- GI50 (786-0): > 100 µM (inactive)
- GI50 (A498): > 100 µM (inactive)
- GI50 (A549): > 100 µM (inactive)
- GI50 (ACHN): 55.2 µM (inactive)
- GI50 (BT-549): > 100 µM (inactive)
- GI50 (CAKI-1): > 100 µM (inactive)
- GI50 (COLO 205): > 100 µM (inactive)
- GI50 (DU-145): > 100 µM (inactive)
- GI50 (EKVX): > 100 µM (inactive)
- GI50 (HCC 2998): 8.04 µM (inactive)
- GI50 (HCT-116): > 100 µM (inactive)
- GI50 (HCT-15): > 100 µM
- GI50 (HOP-62): > 100 µM (inactive)
- GI50 (HOP-92): > 100 µM (inactive)
- GI50 (HT-29): > 100 µM (inactive)
- GI50 (Hs-578T): > 100 µM (inactive)
- GI50 (IGROV-1): > 100 µM (inactive)
- GI50 (K562): > 100 µM (inactive)
- GI50 (KM12): > 100 µM (inactive)
- GI50 (LOX IMVI): 26.7 µM (inactive)
- GI50 (M14): > 100 µM (inactive)
- GI50 (MCF7): > 100 µM (inactive)
- GI50 (MDA-MB-231): > 100 µM (inactive)
- GI50 (MDA-MB-435): > 100 µM (inactive)
- GI50 (MDA-N): > 100 µM (inactive)
- GI50 (MOLT-4): > 100 µM (inactive)
- GI50 (Malme-3M): 51.6 µM (inactive)
- GI50 (NCI-H23): > 100 µM (inactive)
- GI50 (NCI-H460): > 100 µM (inactive)
- GI50 (NCI-H522): 35 µM (inactive)
- GI50 (NCI/ADR-RES): > 100 µM (inactive)
- GI50 (OVCAR-3): > 100 µM (inactive)
- GI50 (OVCAR-4): > 100 µM (inactive)
- GI50 (OVCAR-5): > 100 µM (inactive)
- GI50 (OVCAR-8): > 100 µM (inactive)
- GI50 (PC-3): > 100 µM (inactive)
- GI50 (RPMI-8226): > 100 µM (inactive)
- GI50 (RXF 393): > 100 µM (inactive)
- GI50 (SF-268): 50.7 µM (inactive)
- GI50 (SF-295): > 100 µM (inactive)
- GI50 (SF-539): > 100 µM (inactive)
- GI50 (SK-MEL-28): > 100 µM (inactive)
- GI50 (SK-MEL-2): > 100 µM (inactive)
- GI50 (SK-MEL-5): > 100 µM (inactive)
- GI50 (SK-OV-3): > 100 µM (inactive)
- GI50 (SN12C): > 100 µM (inactive)
- GI50 (SNB-19): > 100 µM (inactive)
- GI50 (SNB-75): > 100 µM (inactive)
- GI50 (SR): > 100 µM (inactive)
- GI50 (SW-620): > 100 µM (inactive)
- GI50 (T47D): > 100 µM (inactive)
- GI50 (TK-10): > 100 µM (inactive)
- GI50 (U-251): > 100 µM (inactive)
- GI50 (UACC-257): > 100 µM (inactive)
- GI50 (UACC-62): 95.1 µM (inactive)
- GI50 (UO-31): > 100 µM (inactive)

Compound: c1ccc2c3c(c(N4CCNCC4)nc2c1)CCCC3
- GI50 (786-0): 14.4 µM (inactive)
- GI50 (A498): 14.5 µM (inactive)
- GI50 (A549): 15.1 µM (inactive)
- GI50 (ACHN): 14.5 µM (inactive)
- GI50 (BT-549): 13.9 µM (inactive)
- GI50 (CAKI-1): 9.25 µM (inactive)
- GI50 (CCRF-CEM): 9.98 µM (inactive)
- GI50 (COLO 205): 5.75 µM (inactive)
- GI50 (DU-145): 15.3 µM (inactive)
- GI50 (EKVX): 7.53 µM (inactive)
- GI50 (HCC 2998): 1.95 µM (inactive)
- GI50 (HCT-116): 14.1 µM (inactive)
- GI50 (HCT-15): 15.8 µM
- GI50 (HL-60): 8.93 µM (inactive)
- GI50 (HOP-62): 17.7 µM (inactive)
- GI50 (HOP-92): 14.2 µM (inactive)
- GI50 (HT-29): 14.2 µM (inactive)
- GI50 (Hs-578T): 27.7 µM (inactive)
- GI50 (IGROV-1): 12.4 µM (inactive)
- GI50 (K562): 5.5 µM (inactive)
- GI50 (KM12): 17.2 µM (inactive)
- GI50 (LOX IMVI): 14.2 µM (inactive)
- GI50 (M14): 5.26 µM (inactive)
- GI50 (MCF7): 14.4 µM (inactive)
- GI50 (MDA-MB-231): 14.3 µM (inactive)
- GI50 (MDA-MB-435): 11.4 µM (inactive)
- GI50 (MDA-N): 13.9 µM (inactive)
- GI50 (MOLT-4): 16.1 µM (inactive)
- GI50 (Malme-3M): 19.9 µM (inactive)
- GI50 (NCI-H226): 14.8 µM (inactive)
- GI50 (NCI-H23): 14.6 µM (inactive)
- GI50 (NCI-H460): 15.1 µM (inactive)
- GI50 (NCI-H522): 15.3 µM (inactive)
- GI50 (NCI/ADR-RES): 14.1 µM (inactive)
- GI50 (OVCAR-3): 15.5 µM (inactive)
- GI50 (OVCAR-4): 16 µM (inactive)
- GI50 (OVCAR-5): 13.7 µM (inactive)
- GI50 (OVCAR-8): 15.5 µM (inactive)
- GI50 (PC-3): 13 µM (inactive)
- GI50 (RXF 393): 10.4 µM (inactive)
- GI50 (SF-268): 15.2 µM (inactive)
- GI50 (SF-295): 21.6 µM (inactive)
- GI50 (SF-539): 10.7 µM (inactive)
- GI50 (SK-MEL-28): 16.1 µM (inactive)
- GI50 (SK-MEL-2): 12.6 µM (inactive)
- GI50 (SK-MEL-5): 12 µM (inactive)
- GI50 (SK-OV-3): 18.8 µM (inactive)
- GI50 (SN12C): 16.3 µM (inactive)
- GI50 (SNB-19): 14.6 µM (inactive)
- GI50 (SNB-75): 13.9 µM (inactive)
- GI50 (SR): 13.2 µM (inactive)
- GI50 (SW-620): 17 µM (inactive)
- GI50 (T47D): 13.5 µM (inactive)
- GI50 (TK-10): 13.7 µM (inactive)
- GI50 (U-251): 13.4 µM (inactive)
- GI50 (UACC-257): 8.15 µM (inactive)
- GI50 (UACC-62): 16.7 µM (inactive)
- GI50 (UO-31): 2.9 µM (inactive)
